In PubChem BioAssay (NCI):
Several values for one entry are separate records, joined by “and”; a condition that tells them apart may be missing. Equal values may be shown once.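 Five compound concentrations were applied to cells in 96-well plates for 48 hours; endpoints were derived by simple linear interpolation of the resulting dose-response curve. GI50: concentration for 50% inhibition of growth. The concentration for full growth arrest is given as TGI.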

Tests used:
Assay in all cases: NCI tumour cell line growth inhibition, 48 h
MDA-MB-231 breast = tested on: MDA-MB-231 breast
NCI-H23 lung = tested on: NCI-H23 lung
MDA-N = tested on: MDA-N
IGROV1 ovarian = tested on: IGROV1 ovarian
SK-OV-3 ovarian = tested on: SK-OV-3 ovarian
SF-268 CNS = tested on: SF-268 CNS
PC-3 prostate = tested on: PC-3 prostate
SNB-19 CNS = tested on: SNB-19 CNS
RPMI-8226 leukemia = tested on: RPMI-8226 leukemia
TK-10 renal = tested on: TK-10 renal

Structure (SMILES)	TGI (MDA-MB-231 breast)	TGI (NCI-H23 lung)	TGI (MDA-N)	TGI (IGROV1 ovarian)	TGI (SK-OV-3 ovarian)	TGI (SF-268 CNS)	TGI (PC-3 prostate)	TGI (SNB-19 CNS)	TGI (RPMI-8226 leukemia)	TGI (TK-10 renal)	GI50 (IGROV1 ovarian)	GI50 (SNB-19 CNS)
[O-]/[N+](=C\c1ccccc1OC(=S)S)c1ccc(Cl)cc1	34.7 µM	> 100 µM	> 100 µM	30.7 µM	> 100 µM	77.7 µM	> 100 µM	> 100 µM	> 100 µM	> 100 µM		
O=c1cc(-c2cc(O)c(O)c(-c3c(O)cc4oc(-c5ccc(O)c(O)c5)cc(=O)c4c3O)c2)oc2cc(O)cc(O)c12	> 25 µM	> 25 µM	> 25 µM	> 25 µM	> 25 µM	> 25 µM	> 25 µM			> 25 µM		
COc1c(O)c2c(=O)cc(OC)c3c4c(OC)cc(=O)c5c(O)c(OC)c6c(c(c1C(C(C)O)C6C(C)O)c23)c54 (stereo unspecified)	5.48 µM	3.71 µM	3.96 µM	2.3 µM	8.64 µM	15 µM	1.85 µM	6.22 µM	4.8 µM	4.66 µM		
N#Cc1c(-c2ccccc2)cc(-c2ccc(Cl)cc2)[nH]c1=S	67.3 µM	38.2 µM	> 100 µM	89.8 µM	77.6 µM	> 100 µM	> 100 µM	> 100 µM	80.2 µM	> 100 µM		
CCCCn1c(-c2ccc([N+](=O)[O-])cc2)cs/c1=N/N=C1\C(=O)Nc2ccc(Br)cc21	32.7 µM	33.1 µM	45.2 µM	> 100 µM	48.8 µM	> 100 µM		69.3 µM		34 µM		
COc1ccc(NC(=S)NC(=O)c2ccc3c(c2)Sc2ccccc2O3)c([N+](=O)[O-])c1	62.8 µM	> 100 µM	> 100 µM	59.1 µM	98.3 µM	45.7 µM	> 100 µM	83.6 µM		36.9 µM		
O=C(N/N=C/c1ccc(Br)cc1)N/N=C/c1ccc(Br)cc1	16.2 µM	> 100 µM	37.5 µM	27.7 µM	7.96 µM	24 µM	> 100 µM	16.6 µM	40.1 µM	5.39 µM		
COc1ccc(COCC[C@H](C)OC2OC(CO[Si](C)(C)C(C)(C)C)C(OC(=O)CCCN=[N+]=[N-])C(OC(=O)CCCN=[N+]=[N-])C2OC(=O)CCCN=[N+]=[N-])cc1 (stereo partly specified)	> 100 µM	> 100 µM	> 100 µM	> 100 µM	> 100 µM	> 100 µM	> 100 µM			> 100 µM		
C=Cc1ccccc1C1(O)C=CC(OC)(OC)C=C1	24.8 µM	16.2 µM		27 µM	29.3 µM	33.9 µM	29.1 µM	30.8 µM	45.2 µM	10.7 µM		
COC(=O)C1(Cc2ccc3c(c2)CCC3)Cc2ccccc2C1	> 100 µM	> 100 µM	> 100 µM	> 100 µM	> 100 µM	> 100 µM	> 100 µM	> 100 µM	54.6 µM	> 100 µM		
C\C(=N/N=C1/C(=C\N(C)C)C(=O)NC(=O)N1C)c1ccc(Cl)cc1	> 100 µM	> 100 µM	> 100 µM	> 100 µM	> 100 µM	> 100 µM	> 100 µM	> 100 µM	> 100 µM	> 100 µM		
CCON1CC(C(=O)OC)=C(O)C1=O	> 100 µM	> 100 µM	> 100 µM	> 100 µM	> 100 µM	> 100 µM	> 100 µM	> 100 µM	> 100 µM	> 100 µM		
CC(=O)OCc1c(O)c2c(c(O)c1COC(C)=O)C(=O)C=CC2=O		29 µM		30.5 µM	33.4 µM	30.8 µM			> 100 µM	30 µM		
CO[C@@H]1O[C@H](C(=O)c2ccccc2)[C@H]2OC(C)(C)O[C@@H]12	> 100 µM	> 100 µM	> 100 µM	> 100 µM	> 100 µM	> 100 µM	> 100 µM	> 100 µM	> 100 µM	> 100 µM		
O=c1cc(-c2ccccc2)oc2c(-c3cc(Cl)cc4c(=O)cc(-c5ccccc5)oc34)cc(Cl)cc12	> 100 µM	> 100 µM	> 100 µM	> 100 µM	85.2 µM	> 100 µM	> 100 µM	> 100 µM	> 100 µM	> 100 µM		
CCOC(=O)c1cn2c(n1)sc1cc(Cl)cc(Cl)c12	> 100 µM	> 100 µM	> 100 µM	> 100 µM	> 100 µM	> 100 µM	> 100 µM	> 100 µM	> 100 µM	> 100 µM		
O=c1[nH]c(=O)n(C2CC(O)C(CO)O2)cc1OCc1ccccc1 (stereo unspecified)	> 100 µM	> 100 µM	> 100 µM	> 100 µM	> 100 µM	> 100 µM	> 100 µM	> 100 µM	> 100 µM	> 100 µM		
CCOC(=O)/C(O)=C1\C(=O)N(C)C(=O)C1c1cccc(OC)c1 (stereo unspecified)		> 100 µM		> 100 µM	> 100 µM	> 100 µM		> 100 µM	> 100 µM			
O=c1[nH]c(Nc2cccc(CO)c2)nc2nc[nH]c12	> 100 µM	> 100 µM	> 100 µM	> 100 µM	> 100 µM	> 100 µM	> 100 µM	> 100 µM	> 100 µM	> 100 µM		
OCc1ccc2c(c1)CC1(Cc3ccc(/C=N/O)cc3C1)C2 (stereo unspecified)	> 100 µM	56.3 µM		> 100 µM	> 100 µM	> 100 µM	> 100 µM	> 100 µM	28.6 µM	> 100 µM		
Cc1cnc2c(c1)C(=O)C1=C(C2=O)C2OC(=O)CC2OC1(C)C (stereo unspecified)	0.35 µM	0.986 µM	0.865 µM	0.424 µM	2.77 µM	0.623 µM	0.812 µM	2.61 µM		1.95 µM		
CN(C)CCNC(=O)c1cccc2nc(-c3ccccc3)oc12		> 100 µM		> 100 µM	> 100 µM	> 100 µM		> 79.8 µM	> 100 µM			
CCCSc1nc(-c2ccc(OC)cc2)c(C#N)c(=O)n1C1OC(COC(C)=O)C(OC(C)=O)C(OC(C)=O)C1OC(C)=O (stereo unspecified)		> 100 µM		> 100 µM	> 100 µM	> 100 µM		> 100 µM	> 100 µM		> 100 µM and 43.4 µM	> 100 µM and 45.4 µM
